The subject of one assay is Burkholderia cepacia SCV. Kind of assay: electron microscopy of cell division (FIG. 4). It is filed as cell-based. To be noted: 128 μg/ml, 4 hours shake culture. The procedure:
FIG. 4 a) to c) are electron microscope photographs of Burkholderia cepacia SCV after 4 hours growth without antibiotic and d), e) and f) in the presence of 128 μg/ml 7-O-malonyl macrolactin A;
It is thought that 7-O-malonyl macrolactin A inhibits the division of bacterial cells, which interrupts the proliferation thereof.
The electron microscope photographs moreover elucidate the bacteriostatic effect of 7-O-malonyl macrolactin A against gram-negative bacteria, an example whereof is the cell division of Burkholderia cepacia. Thus, FIGS. 4a, b and c show Burkholderia cepacia SCV (clinical isolate) in a shake culture without the addition of antibiotic ingredients (control) and FIGS. 4d, e and f after 4 hours growth in a shake culture in the presence of 128 μg/ml 7-O-malonyl macrolactin A. In the control culture, white arrowheads point to the cell division planes and the transverse walls in connection therewith. In the case of the gram-negative cells treated with 7-O-malonyl macrolactin A, (FIGS. 4e and f) black arrows indicate the cell division planes and the unnatural protuberances.

In another assay the test system is E. faecalis ATCC 29212. Description: MIC / MBC in liquid culture. The assay is classed as cell-based, Enterococcus faecalis.
The subject of a further assay is Candida krusei DSM 6128. Kind of assay: MIC / MBC in liquid culture. To be noted: Pichia kudriavzevii. The assay is classed as cell-based.
In another assay the test system is B. cepacia SCV 141. Kind of assay: agar diffusion method, inhibition zone. The assay is classed as cell-based, Burkholderia cepacia. As to conditions: 18 hours at 37° C., per disk 10 μl crude extract, 50 μg macrolactin, 78 μg erythromycin, 10 μg ampicillin. A general note: A growth-free zone around the sample is the usual read-out of agar diffusion tests.
The next assay relates to MRSA 3. Kind of assay: MIC / MBC in liquid culture. To be noted: MRSA 3. It is filed as cell-based, Staphylococcus aureus.
In assay [1] the test system is S. aureus # (non-methicillin-resistant reference strain). Kind of assay: MIC / MBC in liquid culture. The assay is classed as cell-based, Staphylococcus aureus. As to conditions: S. aureus #.
In assay [2] the test system is Enterococcus faecium VRAR E315. Description: kinetics of growth at sub-MIC concentrations (FIG. 1D). It is filed as cell-based. To be noted: E. faecium E315; 4 or 16 μg/ml; four hours following cultivation. An excerpt: • FIG. 1A y-axis: Log CFU (Colony Forming Units) Cells/ml • x-axis: Time (HRS) • FIG. 1B y-axis: Log CFU (Colony Forming Units) Cells/ml • x-axis: Time (HRS) • FIG. 1C: y-axis: Log CFU (Colony Forming Units) Cells/ml • x-axis: Time (HRS) • FIG. 1D: y-axis: Log CFU (Colony Forming Units) Cells/ml • x-axis: Time (HRS) • FIG. 1E: y-axis: Log CFU (Colony Forming Units) Cells/ml • x-axis: Time (HRS) • FIG. 1F: y-axis: Log CFU (Colony Forming Units) Cells/ml • x-axis: Time (HRS) • FIG. 5A: y-axis: % Inhibition • x-axis Concentration μg/ml • FIG. 5B: y-axis: % Inhibition • x-axis Concentration μg/ml

The next assay concerns E. faecium VRAR E315. Description: MIC / MBC in liquid culture. It is filed as cell-based, Enterococcus faecium. As to conditions: E. faecium VRAR E315.
Setting [3] is: Staphylococcus aureus, pronounced inhibition of growth, read-out: MBC (minimal bacteriostatic or fungistatic concentration).
The mark [4] stands for this setting: Staphylococcus aureus, read-out: MIC (minimal inhibitory concentration).

Values after ≈ are worked out from the molar mass of the structure shown.

Broadly, the zone of inhibition is the extent of the growth-free halo in a diffusion test. Higher therefore signals wide suppression of growth.

As for `CC1CCC/C=C/C=C/C(O)CC(O)C/C=C\C=C\C(OC(=O)CC(=O)O)C/C=C/C=C\C(=O)O1` (stereo not drawn) [7-O-malonyl macrolactin A], the “effect on cell division, electron microscope” value in the assay on Burkholderia cepacia SCV is given as “anomalously sized cells were also evident”. Besides, the “MIC (minimal inhibitory concentration)” value against E. faecalis ATCC 29212 (E. faecalis ATCC 29212) was 128 µg/mL (≈ 262 µM); in the assay with MRSA 3, above 128 µg/mL; in assay [1], above 128 µg/mL; with E. faecium VRAR E315, above 128 µg/mL. In addition, the MBC is 4 µg/mL (≈ 8.19 µM) with E. faecalis ATCC 29212 (Enterococcus faecalis, ATCC29212, E. faecalis ATCC 29212, read-out: MBC (minimal bacteriostatic or fungistatic concentration)); 32 µg/mL (≈ 65.5 µM) with Candida krusei DSM 6128 (DSM6128, read-out: MBC (minimal bacteriostatic or fungistatic concentration)); 4 µg/mL (≈ 8.19 µM) with MRSA 3 (setting [3]); 1 µg/mL (≈ 2.05 µM) in assay [1] (setting [3]); 4 µg/mL (≈ 8.19 µM) in the assay on E. faecium VRAR E315 (Enterococcus faecium, VRARE315, read-out: MBC (minimal bacteriostatic or fungistatic concentration)). The MIC in the assay with E. faecalis ATCC 29212 (Enterococcus faecalis, ATCC29212, E. faecalis ATCC 29212, read-out: MIC (minimal inhibitory concentration)) was above 128 µg/mL; in the assay with Candida krusei DSM 6128 (DSM6128, read-out: MIC (minimal inhibitory concentration)), above 128 µg/mL; in the assay on MRSA 3 (setting [4]) it was above 128 µg/mL; in assay [1] (setting [4]), above 128 µg/mL; in the assay on E. faecium VRAR E315 (Enterococcus faecium, VRARE315, read-out: MIC (minimal inhibitory concentration)) it was above 128 µg/mL. The zone of inhibition at 50 µg/disc with B. cepacia SCV 141 (Burkholderia cepacia, SCV141, MH agar) is 15 mm. Also, the Inhibition zone entry with B. cepacia SCV 141 (MH agar) is on record as “produced an inhibition zone”. The “effect on kinetics of growth” value in assay [2] was “almost completely inhibited”.

Source of the values: patent publication US7977375B2, “Antibiotic and method of production thereof” (Helmholtz-Zentrum Für Infektionsforschung GmbH, priority 2004, dated 2011).
